From ChEMBL document CHEMBL1201862, “PubChem BioAssay data set” (2004)
The source made the active and inactive calls.

Tests used:
HEK293 [1] = assay: cells; type: functional, cell-based; conditions: Homo sapiens
Streptococcus = assay: GAS UMAA2166 growth inhibition – luminescence, BacTiterGlo, counter-screen for streptokinase expression inhibitor project, dose response (AID 1915); type: functional, organism-based;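 note: potency for reduction of bacterial viability or growth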
[2] = microbe, parasite or virus in culture; type: functional; conditions: Mycobacterium tuberculosis
[3] = biological target: Nucleotide-binding oligomerization domain-containing protein 2 (Homo sapiens, UniProt Q9HC29); assay: inhibition of NOD2-driven NF-kB reporter – cell-based, luminescence, uHTS, HEK293 (AID 1566); type: functional
Chain of Nucleotide-binding oligomerization domain-containing protein 2 (Q9HC29 whole entry, the tested form may be a part): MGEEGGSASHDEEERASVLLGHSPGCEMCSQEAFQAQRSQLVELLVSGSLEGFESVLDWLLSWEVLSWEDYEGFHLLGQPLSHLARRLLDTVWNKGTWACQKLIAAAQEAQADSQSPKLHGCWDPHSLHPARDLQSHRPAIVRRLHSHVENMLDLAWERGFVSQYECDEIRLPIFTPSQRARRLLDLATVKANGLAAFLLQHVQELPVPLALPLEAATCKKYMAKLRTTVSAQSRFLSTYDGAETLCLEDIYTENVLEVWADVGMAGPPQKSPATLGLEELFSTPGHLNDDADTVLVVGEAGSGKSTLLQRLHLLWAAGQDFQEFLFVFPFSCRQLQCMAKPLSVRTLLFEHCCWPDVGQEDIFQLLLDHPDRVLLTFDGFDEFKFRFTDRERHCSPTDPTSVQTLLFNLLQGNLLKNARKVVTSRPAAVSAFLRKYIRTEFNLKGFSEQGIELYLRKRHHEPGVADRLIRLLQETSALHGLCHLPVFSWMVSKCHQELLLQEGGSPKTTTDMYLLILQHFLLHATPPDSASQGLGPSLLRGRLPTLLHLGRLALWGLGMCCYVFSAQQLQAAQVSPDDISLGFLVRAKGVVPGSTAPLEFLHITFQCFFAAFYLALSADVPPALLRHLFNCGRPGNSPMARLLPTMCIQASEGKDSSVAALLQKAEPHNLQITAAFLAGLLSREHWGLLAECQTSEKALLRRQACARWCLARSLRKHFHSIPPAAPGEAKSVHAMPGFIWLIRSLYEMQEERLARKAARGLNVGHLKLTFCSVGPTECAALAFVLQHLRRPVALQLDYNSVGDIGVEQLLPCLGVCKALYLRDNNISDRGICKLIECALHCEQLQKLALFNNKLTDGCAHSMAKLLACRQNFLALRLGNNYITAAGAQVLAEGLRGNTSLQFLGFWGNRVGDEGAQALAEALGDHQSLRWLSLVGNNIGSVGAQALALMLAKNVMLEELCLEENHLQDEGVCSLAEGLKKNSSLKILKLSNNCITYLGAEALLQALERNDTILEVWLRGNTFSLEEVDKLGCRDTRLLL

[4] = system: Streptococcus sp. 'group A'; assay: Streptococcus pyogenes SK(-)GAS viability under kanamycin – luminescence, BacTiterGlo, confirmation, counter-screen for streptokinase expression inhibitor project, dose response (AID 1900); type: functional, organism-based
HEK293 [5] = assay: cells; type: functional, cell-based; conditions: Homo sapiens; remark: listed apart in the source
HEK293 [6] = assay: NOD2 signaling inhibitors in MDP-stimulated cells, cell-based, uHTS, luminescence (AID 2001); type: functional; conditions: Homo sapiens
HEK293 [7] = assay: cells; type: functional, cell-based; conditions: Homo sapiens; remark: listed apart in the source
HEK293 [8] = assay: inhibition of NOD1-driven NF-kB reporter – cell-based, luminescence, uHTS, primary screen (AID 1578); type: functional; conditions: Homo sapiens
[9] = biological target: T1, Replicative DNA helicase DnaB (Mycobacterium tuberculosis, UniProt P9WMR3); assay: DnaB intein splicing inhibitors, dose response, biochemical, cell-free fluorescence (AID 449749); type: functional
T1 sequence (P9WMR3 whole entry): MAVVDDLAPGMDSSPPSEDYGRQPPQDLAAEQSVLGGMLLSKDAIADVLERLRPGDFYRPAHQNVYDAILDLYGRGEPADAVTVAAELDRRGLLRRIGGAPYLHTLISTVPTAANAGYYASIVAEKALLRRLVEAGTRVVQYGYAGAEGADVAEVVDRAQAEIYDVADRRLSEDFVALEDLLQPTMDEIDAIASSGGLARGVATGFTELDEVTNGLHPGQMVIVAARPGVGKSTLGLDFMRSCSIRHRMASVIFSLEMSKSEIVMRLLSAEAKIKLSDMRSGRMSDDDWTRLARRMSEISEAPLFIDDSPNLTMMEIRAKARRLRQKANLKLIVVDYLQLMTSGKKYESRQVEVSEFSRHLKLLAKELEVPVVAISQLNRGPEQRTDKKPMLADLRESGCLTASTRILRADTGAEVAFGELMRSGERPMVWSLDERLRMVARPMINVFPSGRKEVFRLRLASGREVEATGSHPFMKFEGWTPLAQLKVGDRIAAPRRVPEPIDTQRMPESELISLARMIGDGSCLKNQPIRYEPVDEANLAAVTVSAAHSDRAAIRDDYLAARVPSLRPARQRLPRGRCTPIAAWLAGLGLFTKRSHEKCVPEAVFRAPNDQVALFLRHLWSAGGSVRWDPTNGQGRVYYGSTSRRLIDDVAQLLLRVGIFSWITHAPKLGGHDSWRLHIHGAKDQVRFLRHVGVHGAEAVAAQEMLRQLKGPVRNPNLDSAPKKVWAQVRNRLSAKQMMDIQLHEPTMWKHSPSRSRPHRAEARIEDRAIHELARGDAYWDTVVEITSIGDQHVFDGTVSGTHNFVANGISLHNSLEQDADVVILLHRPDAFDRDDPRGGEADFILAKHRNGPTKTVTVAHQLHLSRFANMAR

Protein RecA = biological target: T2, Protein RecA (Mycobacterium tuberculosis, UniProt P9WHJ3); assay: Fluorescence Cell-Free Homogeneous Dose Retest to Identify Inhibitors of RecA-Intein Splicing Activity. [Related pubchem assays (depositor defined):AID2097, AID2223, AID489010, AID492950]; type: functional
T2 sequence (P9WHJ3 whole entry): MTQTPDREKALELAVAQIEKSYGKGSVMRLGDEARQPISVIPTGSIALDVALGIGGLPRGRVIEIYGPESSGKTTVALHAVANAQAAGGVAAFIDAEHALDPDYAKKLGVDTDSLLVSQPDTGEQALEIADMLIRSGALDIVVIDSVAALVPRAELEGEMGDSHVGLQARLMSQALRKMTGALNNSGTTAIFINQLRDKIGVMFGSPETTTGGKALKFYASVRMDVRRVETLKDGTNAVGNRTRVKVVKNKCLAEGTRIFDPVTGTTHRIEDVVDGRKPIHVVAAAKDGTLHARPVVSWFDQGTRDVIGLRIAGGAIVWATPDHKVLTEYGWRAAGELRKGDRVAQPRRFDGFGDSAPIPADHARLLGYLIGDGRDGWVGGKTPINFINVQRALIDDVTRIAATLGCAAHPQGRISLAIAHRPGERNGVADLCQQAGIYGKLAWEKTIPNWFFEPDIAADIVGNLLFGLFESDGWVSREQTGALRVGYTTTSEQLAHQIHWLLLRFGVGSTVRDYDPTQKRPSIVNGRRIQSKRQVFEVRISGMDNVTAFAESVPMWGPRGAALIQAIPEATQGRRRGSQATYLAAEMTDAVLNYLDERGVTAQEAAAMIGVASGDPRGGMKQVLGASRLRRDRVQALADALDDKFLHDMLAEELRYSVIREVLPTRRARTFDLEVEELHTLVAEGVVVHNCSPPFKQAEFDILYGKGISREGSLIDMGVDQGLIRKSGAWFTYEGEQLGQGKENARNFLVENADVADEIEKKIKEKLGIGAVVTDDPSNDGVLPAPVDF

[10] = biological target: Runt-related transcription factor 1/Core-binding factor subunit beta (Homo sapiens, UniProt Q01196+Q13951); assay: Confirmation of compounds inhibiting the binding between the RUNX1 Runt domain and CBFb-SMMHC via a fluorescence resonance energy transfer (FRET) assay. [Related pubchem assays (depositor defined):AID1434, AID1438, AID1496, AID1550, AID1645]; type: protein assay
Chain of Runt-related transcription factor 1/Core-binding factor subunit beta (Q01196 whole entry, the tested form may be a part): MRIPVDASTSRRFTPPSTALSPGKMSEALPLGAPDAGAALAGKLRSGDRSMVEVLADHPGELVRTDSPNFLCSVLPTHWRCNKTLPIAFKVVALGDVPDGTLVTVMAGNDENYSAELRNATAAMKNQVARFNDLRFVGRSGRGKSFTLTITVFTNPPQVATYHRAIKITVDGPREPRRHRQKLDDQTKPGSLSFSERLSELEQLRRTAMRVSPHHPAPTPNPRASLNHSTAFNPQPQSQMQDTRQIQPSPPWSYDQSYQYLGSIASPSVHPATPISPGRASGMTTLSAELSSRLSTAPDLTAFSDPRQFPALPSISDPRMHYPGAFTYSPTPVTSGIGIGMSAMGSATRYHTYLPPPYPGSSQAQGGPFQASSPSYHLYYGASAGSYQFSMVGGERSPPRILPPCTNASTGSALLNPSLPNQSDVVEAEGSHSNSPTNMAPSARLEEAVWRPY
Chain of Runt-related transcription factor 1/Core-binding factor subunit beta (Q13951 whole entry, the tested form may be a part): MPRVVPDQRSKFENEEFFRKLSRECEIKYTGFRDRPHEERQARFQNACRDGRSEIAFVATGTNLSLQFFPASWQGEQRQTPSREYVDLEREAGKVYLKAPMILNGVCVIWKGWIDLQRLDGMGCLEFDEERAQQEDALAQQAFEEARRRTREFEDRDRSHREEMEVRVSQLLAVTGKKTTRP

Hexokinase HKDC1 = biological target: T3, Hexokinase HKDC1 (Homo sapiens, UniProt Q2TB90); assay: activation of HKDC1 glucose phosphorylation – biochemical, W721R variant, dose response (AID 504730); type: functional
T3 sequence (Q2TB90 whole entry): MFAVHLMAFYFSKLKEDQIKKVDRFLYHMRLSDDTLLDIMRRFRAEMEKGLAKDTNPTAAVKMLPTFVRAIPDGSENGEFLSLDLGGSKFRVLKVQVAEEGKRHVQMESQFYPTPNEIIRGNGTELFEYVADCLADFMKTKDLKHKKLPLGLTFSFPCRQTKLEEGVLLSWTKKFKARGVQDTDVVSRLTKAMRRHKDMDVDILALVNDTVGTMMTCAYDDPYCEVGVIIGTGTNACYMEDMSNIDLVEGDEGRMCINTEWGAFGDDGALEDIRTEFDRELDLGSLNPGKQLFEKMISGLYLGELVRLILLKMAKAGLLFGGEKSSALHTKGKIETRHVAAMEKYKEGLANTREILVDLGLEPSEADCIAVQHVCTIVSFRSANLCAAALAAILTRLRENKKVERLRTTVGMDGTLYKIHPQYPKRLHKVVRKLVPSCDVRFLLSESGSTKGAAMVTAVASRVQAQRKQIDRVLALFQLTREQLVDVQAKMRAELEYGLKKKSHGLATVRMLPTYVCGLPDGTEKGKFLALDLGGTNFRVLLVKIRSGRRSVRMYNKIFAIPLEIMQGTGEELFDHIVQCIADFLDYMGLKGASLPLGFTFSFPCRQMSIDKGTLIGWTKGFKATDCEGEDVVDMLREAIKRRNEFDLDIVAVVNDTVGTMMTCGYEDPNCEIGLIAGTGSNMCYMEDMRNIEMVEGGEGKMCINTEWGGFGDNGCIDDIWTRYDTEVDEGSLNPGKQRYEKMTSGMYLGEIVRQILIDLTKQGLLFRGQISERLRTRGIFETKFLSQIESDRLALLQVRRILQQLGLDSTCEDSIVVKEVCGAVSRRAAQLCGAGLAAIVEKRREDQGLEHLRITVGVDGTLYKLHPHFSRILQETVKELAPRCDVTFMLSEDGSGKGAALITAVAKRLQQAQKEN

Hexokinase-1 = biological target: T4, Hexokinase-1 (Homo sapiens, UniProt P19367); assay: HK1 enzyme activation by HKDC1 hits – biochemical, selectivity assay for HKDC1 activator project, dose response (AID 504762); type: functional
T4 sequence (P19367 whole entry): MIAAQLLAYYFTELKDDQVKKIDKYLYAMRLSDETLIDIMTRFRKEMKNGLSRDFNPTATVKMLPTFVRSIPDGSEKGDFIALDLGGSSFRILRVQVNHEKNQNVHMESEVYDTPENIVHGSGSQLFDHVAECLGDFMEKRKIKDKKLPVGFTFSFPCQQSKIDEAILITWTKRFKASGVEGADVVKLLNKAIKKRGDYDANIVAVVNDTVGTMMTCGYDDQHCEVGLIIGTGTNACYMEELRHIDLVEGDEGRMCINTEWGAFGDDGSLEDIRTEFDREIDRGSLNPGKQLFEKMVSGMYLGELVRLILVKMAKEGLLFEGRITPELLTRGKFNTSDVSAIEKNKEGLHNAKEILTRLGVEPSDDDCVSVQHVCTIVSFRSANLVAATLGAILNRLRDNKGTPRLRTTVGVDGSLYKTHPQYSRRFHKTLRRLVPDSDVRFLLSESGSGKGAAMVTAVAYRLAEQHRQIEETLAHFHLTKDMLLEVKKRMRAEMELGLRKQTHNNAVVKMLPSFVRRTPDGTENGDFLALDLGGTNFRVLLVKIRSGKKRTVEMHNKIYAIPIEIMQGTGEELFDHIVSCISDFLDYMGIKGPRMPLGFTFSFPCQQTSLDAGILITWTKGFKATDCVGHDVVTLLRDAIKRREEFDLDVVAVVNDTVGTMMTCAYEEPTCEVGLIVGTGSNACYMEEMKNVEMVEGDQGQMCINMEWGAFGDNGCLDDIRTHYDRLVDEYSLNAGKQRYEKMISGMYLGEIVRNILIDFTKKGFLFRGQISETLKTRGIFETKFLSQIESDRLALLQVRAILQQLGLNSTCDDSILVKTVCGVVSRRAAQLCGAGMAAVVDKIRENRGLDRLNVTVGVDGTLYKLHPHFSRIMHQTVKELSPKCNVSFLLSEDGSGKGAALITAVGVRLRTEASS

| Structure (SMILES) | IC50 (HEK293 [1]) | EC50 (Streptococcus) | CC50 [2] | EC50 [3] | EC50 [4] | IC50 (HEK293 [5]) | IC50 (HEK293 [6]) | IC50 (HEK293 [7]) | EC50 (HEK293 [8]) | AC50 [9] | EC50 (Protein RecA) | IC50 [10] | EC50 (Hexokinase HKDC1) | EC50 (Hexokinase-1) |
| --- | --- | --- | --- | --- | --- | --- | --- | --- | --- | --- | --- | --- | --- | --- |
| Nc1nn2c(O)cc(-c3ccccc3)nc2c1N=Nc1ccc2c(c1)OCO2 | 19 µM (active) | 3.77 µM (active) | 29.9 µM (active) | > 20 µM (inactive) | 2.16 µM (active) | > 20 µM (inactive) | 14.5 µM (inactive) | > 20 µM (inactive) | 18.4 µM (active) |  |  |  |  |  |
| O=C(CCl)Nc1c2c(nn1-c1ccccc1)CSC2 | > 20 µM (inactive) |  |  | > 20 µM (inactive) |  | > 20 µM (inactive) | 15.1 µM (inactive) | 8.63 µM (active) | 3.07 µM (active) | 60.5 µM (active) | 11.4 µM (active) |  |  |  |
| O=S(=O)(Nc1ccc(-c2nc3cccnc3s2)cc1)c1ccccc1F |  |  |  |  |  |  |  |  |  |  |  | > 50 µM (inactive) |  |  |
| CC(=O)N1CCN(C2c3cccc4cccc(c34)C2NS(=O)(=O)c2ccccc2)CC1 (stereo not given) |  |  |  |  |  |  |  |  |  |  |  |  | 48.9 µM (inactive) | 29.4 µM (inactive) |
